Earlier results on two compounds are cited in patent US20040258741A1, “Percutaneous absorption preparations” (priority 2001, published 2004).

Data set [1] addresses T1, AChE (Homo sapiens, UniProt P22303). The following applies: in vitro.
The next data set has as its system intracranial ACh. The following applies: in vivo.
The target in data set [2] is T1, AChE.

Counter-ions that a name gives are not always drawn.

T1 sequence (P22303 32-614): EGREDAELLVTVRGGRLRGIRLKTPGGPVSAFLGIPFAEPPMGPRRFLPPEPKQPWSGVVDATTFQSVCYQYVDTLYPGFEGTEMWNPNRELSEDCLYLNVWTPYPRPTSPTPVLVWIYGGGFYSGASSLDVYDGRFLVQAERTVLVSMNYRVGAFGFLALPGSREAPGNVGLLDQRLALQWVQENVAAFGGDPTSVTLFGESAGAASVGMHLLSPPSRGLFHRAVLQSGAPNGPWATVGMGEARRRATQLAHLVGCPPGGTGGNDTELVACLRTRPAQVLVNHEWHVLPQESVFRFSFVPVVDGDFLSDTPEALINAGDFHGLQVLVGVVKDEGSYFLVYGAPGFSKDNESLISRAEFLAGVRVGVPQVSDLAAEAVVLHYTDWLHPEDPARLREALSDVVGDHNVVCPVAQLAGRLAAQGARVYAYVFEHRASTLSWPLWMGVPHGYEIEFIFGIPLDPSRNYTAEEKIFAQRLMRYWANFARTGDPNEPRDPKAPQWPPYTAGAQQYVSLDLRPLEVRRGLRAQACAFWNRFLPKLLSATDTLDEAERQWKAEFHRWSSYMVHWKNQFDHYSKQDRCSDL

In the case of `O=C(O)/C=C\C(=O)O.O=C1Cc2cc3c(CCC4CCN(Cc5ccccc5)CC4)noc3cc2N1` [Icopezil, 5,7-dihydro-3-[2-[1-(phenylmethyl)-4-piperidinyl]ethyl]-6H-pyrrolo-[4,5-f]-1,2-benzisoxazol-6-one maleate], the “AChE selectivity compared with tacrine” value at AChE [1] is given as “higher AChE selectivity than the existing AChE inhibitor tacrine”. Besides, the “intracranial ACh” value in the data set on intracranial ACh was “clearly increases intracranial ACh in vivo”.

With `COc1cc2c(cc1OC)C(=O)C(F)(CC1CCN(Cc3cccc(F)c3)CC1)C2` (stereo not drawn) [ER-127528, 4-[(5,6-dimethoxy-2-fluoro-1-indanon)-2-yl]methyl-1-(3-fluorobenzyl)piperidine hydrochloride], the “in vitro AChE inhibition action compared with Donepezil” value on AChE [2] is “stronger in vitro AChE inhibition action than Donepezil”.
